From patent publication US9512414B2, “Thermostable beta-glucosidase” (HONDA MOTOR CO., LTD., priority 2014, dated 2016)

System: thermostable β-glucosidase AR19G-228-1 (GH family 1), SEQ ID NO: 2, from hot spring soil metagenome AR19, expressed in E. coli
Test: Kinetics of PNPG hydrolysis by AR19G-228-1 β-glucosidase
Type: biochemical
Settings: 100° C., acetate buffer pH 5.5
Description: The β-glucosidase activity using PNPG as a substrate of the enzyme protein (AR19G-228-1) encoded by the AR19G-228-1 gene was investigated. A solution prepared by dissolving PNPG (manufactured by Sigma-Aldrich Co. LLC.) in water and adjusting to a predetermined final concentration was used as the substrate solution. It should be noted that the PNPG substrate solutions used in the experiments described below all used the PNPG aqueous solution prepared by the above method. PNPG (manufactured by Sigma-Aldrich Co. LLC.) was used as the substrate for measuring the β-glucosidase activity. In the measurements, the purified enzyme obtained in section <7> above was diluted to a concentration of 0.0075 mg/mL with 0.05 M Tris-HCl buffer (pH 8.0) and used.
For the reaction at a temperature of 50 to 90° C., a Thermomixer (manufactured by the Eppendorf AG) was used, a sample tube with a volume of 1.5 mL was used as a reaction vessel, and the amount of reaction solution was set to 200 μL. The reaction solution was composed of 5 μL of diluted purified enzyme, 45 μL of purified water, 50 μL of 200 mM acetate buffer (pH 5.5), and 100 μL of 60 mM PNPG aqueous solution. […]
In all measurements, a mixed solution prepared by replacing the purified enzyme solution with 50 mM Tris-HCl buffer (pH 8.0) and then reacting the solution under the same conditions was used as a control. […] The amount of p-nitrophenol in the supernatant was determined by measuring the absorbance at 420 nm using a spectrophotometer, calculating the amount of p-nitrophenol in the supernatant using a calibration curve prepared with p-nitrophenol, and then determining the amount of p-nitrophenol produced by the enzymatic hydrolysis by the difference from the control. […] In addition, each measurement was performed for three independent experiments, and a mean value and a standard error were determined. […]

SMILES: O=[N+]([O-])c1ccc(O[C@@H]2O[C@H](CO)[C@@H](O)[C@H](O)[C@H]2O)cc1 [PNPG, p-nitrophenyl-β-D-glucopyranoside]
- Km (PNPG 0.5-100 mM): 4.5 mM
- Vmax (PNPG 0.5-100 mM): 430.3 U/mg
- Kcat/Km (PNPG, calculated from Vmax and Km): 91500 M⁻¹ s⁻¹
